# Where two headings read alike, the source gives them in different places.
# Assays:
# [1] = biological target: OGG1 (Homo sapiens (Human), UniProt O15527); assay: In vitro OGG1 activity assay; assay type: biochemical; conditions: 800 pM OGG1 enzyme, 2 nM human APEX1, 10 nM 8-oxoA:C substrate
# Outline: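 Fluorescence-release assay on a duplex oligonucleotide carrying an OGG1 substrate base beside a fluorophore, quenched from the complementary strand. Excess APEX1 cleaves the abasic site left by base excision, melting the duplex and unquenching the fluorophore. Compounds in DMSO were dispensed before enzyme and substrate, and fluorescein signal was read.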
# [2] = tested on: CCL2; assay: Mouse CCL2 assay in MLE12 cells; assay type: cell-based; conditions: MLE12 cells, TNF-α 20 ng/ml, supernatant after 30 hours, HTRF, read-out: CCL2 (EC50)
# Outline: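 MLE12 mouse lung epithelial cells (7500/well, DMEM/F12 with 5% FBS) preincubated 1 h with compounds (6-point dose-response, duplicate), then stimulated with TNF-α (final 20 ng/ml) for 30 h at 37 °C. Secreted CCL2 measured by HTRF sandwich immunoassay (Ex330/Em620, 665 nm) against standard curve; IC50 from delta ratios.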
# [3] = tested on: MLE12 cells; assay: Cell viability assay in MLE12 cells (resazurin); assay type: cell-based, mouse; conditions: TNF-α 20 ng/ml, resazurin added after 24 hours culture
# Outline: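 MLE12 cells (7500 cells/well) were seeded onto 11-point duplicate compound dose-responses, with TNF-α (final 20 ng/ml) added after 1 hour at 37° C. After 24 hours, resazurin was added for 6 hours and resorufin fluorescence read (ex544 nm/em595 nm). EC50 values were calculated by curve fitting.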
# Chain of OGG1 (O15527 whole entry): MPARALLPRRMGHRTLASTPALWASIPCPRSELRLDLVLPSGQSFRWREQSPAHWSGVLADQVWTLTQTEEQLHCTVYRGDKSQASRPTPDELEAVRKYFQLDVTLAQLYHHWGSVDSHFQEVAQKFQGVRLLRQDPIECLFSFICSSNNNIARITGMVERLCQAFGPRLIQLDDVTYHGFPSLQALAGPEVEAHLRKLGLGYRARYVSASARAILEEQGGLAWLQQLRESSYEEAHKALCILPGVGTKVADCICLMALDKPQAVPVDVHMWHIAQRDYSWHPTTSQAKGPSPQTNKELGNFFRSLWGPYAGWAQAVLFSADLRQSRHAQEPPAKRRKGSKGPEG
SMILES,IC50 [1] [µM],EC50 [2] [µM],"EC50 ([2]; Mus musculus, MLE12, 30 h) [µM]","IC50 ([3]; Mus musculus, MLE12, 24 h) [µM]",IC50 [3] [µM]
"Cn1ncc2cc(NC(=O)[C@H]3CC[C@@H](n4c(=O)[nH]c5c(Br)cccc54)CC3)ccc21 [Example 171, (Cis)-4-(4-bromo-2-oxo-2,3-dihydro-1H-1,3-benzodiazol-1-yl)-N-(1-methyl-1H-indazol-5-yl)cyclohexane-1-carboxamide]",0.211,–,41.1,17.5,–
"O=C(Nc1ccc(Br)c(Cl)c1)N1CCC(n2c(=O)[nH]c3c(Br)cccc32)CC1 [Example 49, 4-(4-Bromo-2-oxo-2,3-dihydro-1H-1,3-benzodiazol-1-yl)-N-(4-bromo-3-chlorophenyl)piperidine-1-carboxamide]",0.379,–,15.2,5.4,–
"COc1cc(NC(=O)N2CCC(n3c(=O)[nH]c4c(-c5ccc(CO)nc5)cccc43)CC2)ccc1Cl [Example 83, N-(4-Chloro-3-methoxyphenyl)-4-{4-[6-(hydroxymethyl)pyridin-3-yl]-2-oxo-2,3-dihydro-1H-1,3-benzodiazol-1-yl}piperidine-1-carboxamide]",0.958,–,34.7,14,–
"Cc1cc(NC(=O)[C@H]2CC[C@@H](n3c(=O)[nH]c4c(Br)cccc43)CC2)ccc1F [Example 142, (Cis)-4-(4-bromo-2-oxo-2,3-dihydro-1H-1,3-benzodiazol-1-yl)-N-(4-fluoro-3-methylphenyl)cyclohexane-1-carboxamide]",0.497,–,15.8,7.96,–
"O=c1[nH]c2c(Br)cccc2n1[C@H]1CC[C@@H](C(=O)Nc2ccc(Cl)c(Cl)c2)CC1 [Example 118, (Cis)-4-(4-bromo-2-oxo-2,3-dihydro-1H-1,3-benzodiazol-1-yl)-N-(3,4-dichlorophenyl)cyclohexane-1-carboxamide]",0.234,–,16.7,5.39,–
"COc1cc(NC(=O)[C@H]2CC[C@@H](n3c(=O)[nH]c4c(C(=O)N5CCN(C)CC5)cccc43)CC2)ccc1C [Example 268, Cis-N-(3-methoxy-4-methylphenyl)-4-[4-(4-methylpiperazine-1-carbonyl)-2-oxo-2,3-dihydro-1H-1,3-benzodiazol-1-yl]cyclohexane-1-carboxamide]",0.153,–,> 100,13.4,–
"COc1ccc(NC(=O)[C@H]2CC[C@@H](n3c(=O)[nH]c4c(Br)cccc43)CC2)cc1C(F)(F)F [Example 129, (Cis)-4-(4-bromo-2-oxo-2,3-dihydro-1H-1,3-benzodiazol-1-yl)-N-[4-methoxy-3-(trifluoromethyl)phenyl]cyclohexane-1-carboxamide]",0.116,–,21.6,9.48,–
"COc1ccc(CSc2cccc3c2[nH]c(=O)n3[C@H]2CC[C@@H](C(=O)Nc3ccc(C)c(OC)c3)CC2)cc1 [Example 230, Cis-N-(3-methoxy-4-methylphenyl)-4-(4-{[(4-methoxyphenyl)methyl]sulfanyl}-2-oxo-2,3-dihydro-1H-1,3-benzodiazol-1-yl)cyclohexane-1-carboxamide]",0.606,–,5.84,2.58,–
"O=c1[nH]c2c(Cl)cccc2n1[C@H]1CC[C@@H](C(=O)Nc2ccc3cc[nH]c3c2)CC1 [Example 148, (Cis)-4-(4-chloro-2-oxo-2,3-dihydro-1H-1,3-benzodiazol-1-yl)-N-(1H-indol-6-yl)cyclohexane-1-carboxamide]",0.098,–,31.7,15.7,–
"COc1ccc(NC(=O)[C@H]2CC[C@@H](n3c(=O)[nH]c4c(Br)cccc43)CC2)c(F)c1F [Example 154, (Cis)-4-(4-bromo-2-oxo-2,3-dihydro-1H-1,3-benzodiazol-1-yl)-N-(2,3-difluoro-4-methoxyphenyl)cyclohexane-1-carboxamide]",0.383,–,52.3,16.1,–

# The next compounds have a lower IC50 [1] than those just listed; values first:
IC50 [1] [µM],EC50 [2] [µM],"EC50 ([2]; Mus musculus, MLE12, 30 h) [µM]",SMILES,"IC50 ([3]; Mus musculus, MLE12, 24 h) [µM]",IC50 [3] [µM]
0.023,16.7,15.6,"COc1cc(NC(=O)[C@H]2CC[C@@H](n3c(=O)[nH]c4c(Br)cccc43)CC2)ccc1C [Example 107, (Cis)-4-(4-bromo-2-oxo-2,3-dihydro-1H-1,3-benzodiazol-1-yl)-N-(3-methoxy-4-methylphenyl)cyclohexane-1-carboxamide]",7.41,7.4
0.0175,–,32.6,"COc1cc(NC(=O)[C@H]2CC[C@@H](n3c(=O)[nH]c4c(C(=O)NCC5CCCO5)cccc43)CC2)ccc1C (stereo partly drawn) [Example 273, 2-Oxo-N-[(oxolan-2-yl)methyl]-1-[cis-4-[(3-methoxy-4-methylphenyl)carbamoyl]cyclohexyl]-2,3-dihydro-1H-1,3-benzodiazole-4-carboxamide]",19.2,–
0.094,–,23.3,"O=c1[nH]c2c(Br)cccc2n1[C@H]1CC[C@@H](C(=O)Nc2ccc3cc[nH]c3c2)CC1 [Example 135, (Cis)-4-(4-bromo-2-oxo-2,3-dihydro-1H-1,3-benzodiazol-1-yl)-N-(1H-indol-6-yl)cyclohexane-1-carboxamide]",9,–
0.025,–,34.6,"COc1ccc(NC(=O)[C@H]2CC[C@@H](n3c(=O)[nH]c4c(Br)cccc43)CC2)cc1 [Example 140, (Cis)-4-(4-bromo-2-oxo-2,3-dihydro-1H-1,3-benzodiazol-1-yl)-N-(4-methoxyphenyl)cyclohexane-1-carboxamide]",17.7,–
0.00271,–,> 33,"COc1cc(NC(=O)[C@H]2CC[C@@H](n3c(=O)[nH]c4c(C(=O)NCCO)cccc43)CC2)ccc1C [Example 263, N-(2-Hydroxyethyl)-2-oxo-1-[cis-4-[(3-methoxy-4-methylphenyl)carbamoyl]cyclohexyl]-2,3-dihydro-1H-1,3-benzodiazole-4-carboxamide]",27.2,–
0.0286,–,10.5,"COc1cc(NC(=O)[C@H]2CC[C@@H](n3c(=O)[nH]c4c(N(C)C5CCN(C)C5)cccc43)CC2)ccc1C (stereo partly drawn) [Example 296, Cis-N-(3-Methoxy-4-methylphenyl)-4-{4-[methyl(1-methylpyrrolidin-3-yl)amino]-2-oxo-2,3-dihydro-1H-1,3-benzodiazol-1-yl}cyclohexane-1-carboxamide]",13.5,–
0.0272,–,31.7,"COc1cc(NC(=O)[C@H]2CC[C@@H](n3c(=O)[nH]c4c(NC(=O)c5cc[nH]n5)cccc43)CC2)ccc1C [Example 299, N-{2-Oxo-1-[cis-4-[(3-methoxy-4-methylphenyl)carbamoyl]cyclohexyl]-2,3-dihydro-1H-1,3-benzodiazol-4-yl}-1H-pyrazole-3-carboxamide]",10.2,–
0.00039,–,32.9,"COc1cc(NC(=O)[C@H]2CC[C@@H](n3c(=O)[nH]c4c(C(=O)NCc5ncc[nH]5)cccc43)CC2)ccc1C [Example 270, N-[(1H-Imidazol-2-yl)methyl]-2-oxo-1-[cis-4-[(3-methoxy-4-methylphenyl)carbamoyl]cyclohexyl]-2,3-dihydro-1H-1,3-benzodiazole-4-carboxamide]",16.8,–
0.0172,–,33.5,"Cc1cc(NC(=O)[C@H]2CC[C@@H](n3c(=O)[nH]c4c(Br)cccc43)CC2)ccc1O [Example 194, Cis-4-(4-bromo-2-oxo-2,3-dihydro-1H-1,3-benzodiazol-1-yl)-N-(4-hydroxy-3-methylphenyl)cyclohexane-1-carboxamide]",15.6,–
0.00691,–,43,"COc1cc(NC(=O)[C@H]2CC[C@@H](n3c(=O)[nH]c4c(NC(=O)c5cnco5)cccc43)CC2)ccc1C [Example 301, N-{2-Oxo-1-[cis-4-[(3-methoxy-4-methylphenyl)carbamoyl]cyclohexyl]-2,3-dihydro-1H-1,3-benzodiazol-4-yl}-1,3-oxazole-5-carboxamide]",16.2,–
0.012,–,36.6,"COc1cc(NC(=O)[C@H]2CC[C@@H](n3c(=O)[nH]c4c(N(C)CCN)cccc43)CC2)ccc1C [Example 298, Cis-4-{4-[(2-aminoethyl)(methyl)amino]-2-oxo-2,3-dihydro-1H-1,3-benzodiazol-1-yl}-N-(3-methoxy-4-methylphenyl)cyclohexane-1-carboxamide]",29.2,–
0.027,–,29.6,"COc1cc(NC(=O)[C@H]2CC[C@@H](n3c(=O)[nH]c4c(Cl)cccc43)CC2)ccc1C [Example 146, (Cis)-4-(4-chloro-2-oxo-2,3-dihydro-1H-1,3-benzodiazol-1-yl)-N-(3-methoxy-4-methylphenyl)cyclohexane-1-carboxamide]",9.72,–
